The values below come from paper PMC9960930, “Saponin and Fatty Acid Profiling of the Sea Cucumber Holothuria atra, α-Glucosidase Inhibitory Activity and the Identification of a Novel Triterpene Glycoside” (Nutrients, 2023).

The target of data set [1] is α-glucosidase. Further details: method as in PMID 25735900. To be noted: cited from earlier work; for IC50: purified from S. japonicas, read-out: IC50 against α-glucosidase; for α-glucosidase inhibitory activity: purified from internal organs of S. japonicus.
The target of data set [2] is α-glucosidase. Further details: method as in PMID 22416705. To be noted: cited from earlier work; for IC50 against α-glucosidase: fatty acids from body wall of S. japonicus; for α-glucosidase inhibitory activity: purified from body wall of S. japonicus.
Data set [3] addresses α-glucosidase from Saccharomyces cerevisiae. The data set is described as follows: α-glucosidase inhibition assay (PNPG substrate). The class given is biochemical. As to conditions: commercial pure fatty acids; acarbose positive control; three repeats; read-out: IC50 against α-glucosidase. As to the method:
The reference standard for the GC-MS analysis was a Supelco 37 Component FAME mix from Sigma Aldrich (Sigma-Aldrich Chemie GmbH, Steinheim, Germany). Pure fatty acids, including palmitoleic acid (≥98.5%), arachidonic acid, and eicosapentaenoic acid (≥99%), were purchased from Sigma Aldrich (Sigma-Aldrich Chemie GmbH, Steinheim, Germany).
The α-glucosidase inhibition was assessed using the method described by Su et al. (2013 and Trinh et al. (2016), with a slight modification. In total, 100 μL of the α-glucosidase enzyme solution from Saccharomyces cerevisiae (0.2 U/mL in a 0.1 M phosphate buffer at pH 6.8) and 50 μL of the sample dissolved in the phosphate buffer containing 6% DMSO 0.25–20 mg/mL), and were incubated in a transparent 96-well plate at 37 °C for 15 min. Next, 50 μL of PNPG (5 mM in a 0.1 m phosphate buffer) was added. The PNPG was hydrolyzed to release p-nitrophenyl (PNP), and this process was monitored at 405 nm for 30 min at 37 °C, with a BioTek Eon microplate reader (Winooski, VT, USA)) using the Gen5 version 2.06 software. […] The IC50 values were calculated with GraphPad Prism 6 software (GraphPad Software Inc, La Jolla, CA, USA). The IC50 values were subjected to one-way analysis of variance (ANOVA) and the Tukey post hoc test, using GraphPad Prism 6 software to assess any significant differences among the treatments. P-values < 0.05 were considered significant.

Data set [4] has as its target α-glucosidase. Set-up: method as in PMID 23355366. To be noted: read-out: IC50 against α-glucosidase; cited from earlier work.
Data set [5] can be described thus: solubility in NMR solvent. As to conditions: noticed when preparing the compounds for NMR analysis.
Another data set relates to diabetic mice. Set-up: method as in PMID 26932154. As to conditions: treatment of diabetic mice; cited from earlier work.
Data set [6] relates to α-glucosidase. Set-up: method as in PMID 26932154. As to conditions: cited from earlier work.

In brackets after ≈: the same amount, converted by molar mass. Read-outs that look alike come from different tables or passages of the source.

As a reminder, the IC50 is the point on the concentration scale where inhibition reaches its midpoint. Regarding `CCCCCC/C=C\CCCCCCCC(=O)OCC(O)COC(=O)CCCCCCC/C=C\CCCCCC` [1,3-Dipalmitolein], on α-glucosidase [1], the IC50 is 4.45 µM and the α-glucosidase inhibitory activity result was “strong”.

Turning to `CCCCCCC/C=C\C/C=C\CCCCCC(=O)O` [7(Z),10(Z)-octadecadienoic acid], on α-glucosidase [2], the “IC50 against α-glucosidase” value is recorded as 0.49 ± 0.05 µg/mL (≈ 1.75 µM) and the α-glucosidase inhibitory activity entry is given as “strong”.

`CCCCCCCC/C=C\CCCCCCCC(=O)O` [cis-9-octadecenoic acid]: at α-glucosidase [1], the IC50 was 14.9 µM and the α-glucosidase inhibitory activity entry is on record as “strong”.

Turning to `CCCCCC/C=C\CCCCCCCC(=O)O` [Palmitoleic acid], the 50% inhibitory concentration (IC50) in data set [3] is 320 ± 32 µM; on α-glucosidase [4], 265 ± 2 µM.

`CC1OC(OC2C(OC3CCC4(C)C5=CC(O)C67C(=O)OC(C)(C8CCC(C)(C)O8)C6(O)CCC7(C)C5CCC4C3(C)C)OCC(O)C2O)C(O)C(O)C1O` (stereo not drawn) [compound 1, desholothurin B]: in data set [5], the “solubility in methanol-d4” value is given as “soluble”.

On to `CCCCC/C=C\C/C=C\C/C=C\C/C=C\CCCC(=O)O` [Arachidonic acid], for which the IC50 was 596 ± 44 µM in data set [3] and 211 ± 2 µM at α-glucosidase [4].

As for `COC1C(O)C(CO)OC(OC2C(O)C(CO)OC(OC3C(C)OC(OC4C(OC5CCC6(C)C7=CC(O)C89C(=O)OC(C)(CCCC(C)C)C8(O)CCC9(C)C7CCC6C5(C)C)OCC(OS(=O)(=O)O)C4O)C(O)C3O)C2O)C1O.[Na+]` (stereo not drawn) [echinoside A], the “postprandial blood glucose levels” value in the data set with diabetic mice is on record as “suppressed postprandial blood glucose levels”. Moreover, the α-glucosidase activity result in the data set with α-glucosidase [6] is listed as “inhibited”.

On to `CCCCCCCCCC/C=C\CCCCCC(=O)O` [7(Z)-octadecenoic acid], for which, on α-glucosidase [2], the “IC50 against α-glucosidase” value is recorded as 0.51 ± 0.02 µg/mL (≈ 1.81 µM) and the α-glucosidase inhibitory activity entry was “strong”.

With `CC/C=C\C/C=C\C/C=C\C/C=C\C/C=C\CCCC(=O)O` [Eicosapentaenoic acid], in data set [3], the 50% inhibitory concentration (IC50) stood at 541 ± 39 µM.

Regarding `CO[C@@H]1[C@@H](O)[C@H](O[C@@H]2[C@@H](O)[C@H](O[C@H]3[C@H](O)[C@@H](O)[C@H](O[C@H]4[C@H](O[C@H]5CC[C@]6(C)C7=C[C@H](O)[C@@]89C(=O)O[C@@](C)(C%10CCC(C)(C)O%10)[C@@]8(O)CC[C@@]9(C)[C@@H]7CC[C@H]6C5(C)C)OC[C@@H](OS(=O)(=O)O)[C@@H]4O)O[C@@H]3C)O[C@H](CO)[C@H]2O)O[C@H](CO)[C@H]1O` (stereo partly drawn) [holothurin A], in the data set on diabetic mice, the “postprandial blood glucose levels” value was “suppressed postprandial blood glucose levels”. In the data set with α-glucosidase [6], the α-glucosidase activity entry is “inhibited”.
